From publication PMC9329436, “Optimization of the 4-anilinoquin(az)oline scaffold as epidermal growth factor receptor (EGFR) inhibitors for chordoma utilizing a toxicology profiling assay platform” (Scientific Reports, 2022)

Key:
Assay in all cases: 33PanQinase activity assay
Assay type in all cases: biochemical
[1] = molecular target: T1, DDR2 (Homo sapiens, UniProt Q16832); conditions: for Residual activity: singlicate
T1 sequence (Q16832 22-855): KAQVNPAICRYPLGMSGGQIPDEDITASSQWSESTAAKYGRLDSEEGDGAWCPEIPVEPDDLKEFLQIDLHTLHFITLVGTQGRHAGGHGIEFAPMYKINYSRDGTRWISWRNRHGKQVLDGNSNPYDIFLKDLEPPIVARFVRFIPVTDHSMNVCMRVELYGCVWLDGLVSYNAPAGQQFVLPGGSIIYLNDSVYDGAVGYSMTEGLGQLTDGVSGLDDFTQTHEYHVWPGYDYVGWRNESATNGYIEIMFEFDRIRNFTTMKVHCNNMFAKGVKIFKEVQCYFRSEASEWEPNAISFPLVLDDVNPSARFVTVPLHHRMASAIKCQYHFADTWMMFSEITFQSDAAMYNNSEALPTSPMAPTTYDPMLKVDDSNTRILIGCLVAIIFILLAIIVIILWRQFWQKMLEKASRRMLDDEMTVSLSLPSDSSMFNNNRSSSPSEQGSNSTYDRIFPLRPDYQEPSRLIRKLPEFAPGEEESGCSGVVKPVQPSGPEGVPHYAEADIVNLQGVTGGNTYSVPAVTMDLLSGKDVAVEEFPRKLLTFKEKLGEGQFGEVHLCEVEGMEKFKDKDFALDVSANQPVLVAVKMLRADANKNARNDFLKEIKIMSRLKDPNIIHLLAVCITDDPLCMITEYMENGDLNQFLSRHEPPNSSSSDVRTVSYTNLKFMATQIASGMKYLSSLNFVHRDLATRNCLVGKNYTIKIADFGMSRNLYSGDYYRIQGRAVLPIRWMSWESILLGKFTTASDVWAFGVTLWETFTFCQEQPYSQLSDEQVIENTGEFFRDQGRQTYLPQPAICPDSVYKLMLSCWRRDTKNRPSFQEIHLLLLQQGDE
From the text: (§1) Table S4. Profiling of two compounds at two concentrations against 320 wild-type protein kinases; singlicate measurement; Residual activities (% of control).

[2] = molecular target: ERBB4 (Homo sapiens, UniProt Q15303); conditions: for Residual activity: singlicate
From the text: as §1

[3] = molecular target: T2, EPHA6 (Homo sapiens, UniProt Q9UF33); conditions: for Residual activity: singlicate
T2 sequence (Q9UF33 23-1036): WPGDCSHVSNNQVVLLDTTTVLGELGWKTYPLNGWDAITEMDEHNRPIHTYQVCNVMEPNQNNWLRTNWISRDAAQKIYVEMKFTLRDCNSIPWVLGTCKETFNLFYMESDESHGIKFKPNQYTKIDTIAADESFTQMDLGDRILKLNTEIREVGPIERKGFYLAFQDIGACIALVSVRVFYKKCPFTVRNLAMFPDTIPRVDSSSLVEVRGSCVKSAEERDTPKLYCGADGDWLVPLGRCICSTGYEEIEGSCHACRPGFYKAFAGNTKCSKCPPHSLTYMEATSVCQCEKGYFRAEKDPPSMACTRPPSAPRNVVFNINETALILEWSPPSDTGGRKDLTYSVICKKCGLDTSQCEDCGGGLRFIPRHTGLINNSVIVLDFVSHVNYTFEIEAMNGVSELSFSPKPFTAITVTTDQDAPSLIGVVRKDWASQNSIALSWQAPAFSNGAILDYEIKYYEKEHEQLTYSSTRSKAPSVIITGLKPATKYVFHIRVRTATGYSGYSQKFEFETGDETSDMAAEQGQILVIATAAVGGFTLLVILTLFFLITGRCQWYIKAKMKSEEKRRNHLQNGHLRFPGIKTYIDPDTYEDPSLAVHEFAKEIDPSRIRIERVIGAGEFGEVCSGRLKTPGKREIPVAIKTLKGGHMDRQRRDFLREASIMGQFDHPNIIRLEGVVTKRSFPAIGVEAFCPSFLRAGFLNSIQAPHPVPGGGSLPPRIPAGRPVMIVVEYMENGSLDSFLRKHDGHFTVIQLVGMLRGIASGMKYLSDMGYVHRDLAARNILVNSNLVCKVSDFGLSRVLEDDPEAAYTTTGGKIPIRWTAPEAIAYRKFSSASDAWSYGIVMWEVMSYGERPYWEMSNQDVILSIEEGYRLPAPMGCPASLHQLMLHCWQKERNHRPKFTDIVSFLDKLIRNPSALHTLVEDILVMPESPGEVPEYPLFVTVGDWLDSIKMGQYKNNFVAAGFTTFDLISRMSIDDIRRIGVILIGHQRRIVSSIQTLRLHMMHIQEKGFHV
From the text: as §1

[4] = molecular target: T3, PRKG2 (Homo sapiens, UniProt Q13237); conditions: for Residual activity, PRKG2: kinase PRKG2, singlicate
T3 sequence (Q13237 1-762): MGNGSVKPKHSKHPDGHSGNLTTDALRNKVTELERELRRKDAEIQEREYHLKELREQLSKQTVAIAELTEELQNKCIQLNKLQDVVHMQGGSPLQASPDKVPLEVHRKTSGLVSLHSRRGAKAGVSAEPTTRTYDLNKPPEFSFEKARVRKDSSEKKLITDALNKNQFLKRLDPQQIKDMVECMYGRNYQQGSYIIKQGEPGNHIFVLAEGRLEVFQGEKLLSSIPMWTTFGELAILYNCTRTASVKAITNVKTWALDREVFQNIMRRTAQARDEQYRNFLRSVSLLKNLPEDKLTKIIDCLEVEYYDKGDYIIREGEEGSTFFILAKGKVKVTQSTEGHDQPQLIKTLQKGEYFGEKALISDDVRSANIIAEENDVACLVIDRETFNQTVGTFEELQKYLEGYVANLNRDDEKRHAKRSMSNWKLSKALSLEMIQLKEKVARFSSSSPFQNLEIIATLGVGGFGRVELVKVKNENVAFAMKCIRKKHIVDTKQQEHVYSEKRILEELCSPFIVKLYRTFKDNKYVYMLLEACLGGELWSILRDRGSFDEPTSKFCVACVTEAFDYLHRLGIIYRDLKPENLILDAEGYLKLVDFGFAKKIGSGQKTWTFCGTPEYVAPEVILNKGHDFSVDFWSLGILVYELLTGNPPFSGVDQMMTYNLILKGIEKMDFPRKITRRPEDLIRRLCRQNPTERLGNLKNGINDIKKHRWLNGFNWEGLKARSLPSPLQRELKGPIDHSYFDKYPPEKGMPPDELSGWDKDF
From the text: as §1

[5] = molecular target: LCK (Homo sapiens, UniProt P06239); conditions: for Residual activity: LCK, singlicate
From the text: as §1

Sequence of ERBB4 (Q15303 26-1308): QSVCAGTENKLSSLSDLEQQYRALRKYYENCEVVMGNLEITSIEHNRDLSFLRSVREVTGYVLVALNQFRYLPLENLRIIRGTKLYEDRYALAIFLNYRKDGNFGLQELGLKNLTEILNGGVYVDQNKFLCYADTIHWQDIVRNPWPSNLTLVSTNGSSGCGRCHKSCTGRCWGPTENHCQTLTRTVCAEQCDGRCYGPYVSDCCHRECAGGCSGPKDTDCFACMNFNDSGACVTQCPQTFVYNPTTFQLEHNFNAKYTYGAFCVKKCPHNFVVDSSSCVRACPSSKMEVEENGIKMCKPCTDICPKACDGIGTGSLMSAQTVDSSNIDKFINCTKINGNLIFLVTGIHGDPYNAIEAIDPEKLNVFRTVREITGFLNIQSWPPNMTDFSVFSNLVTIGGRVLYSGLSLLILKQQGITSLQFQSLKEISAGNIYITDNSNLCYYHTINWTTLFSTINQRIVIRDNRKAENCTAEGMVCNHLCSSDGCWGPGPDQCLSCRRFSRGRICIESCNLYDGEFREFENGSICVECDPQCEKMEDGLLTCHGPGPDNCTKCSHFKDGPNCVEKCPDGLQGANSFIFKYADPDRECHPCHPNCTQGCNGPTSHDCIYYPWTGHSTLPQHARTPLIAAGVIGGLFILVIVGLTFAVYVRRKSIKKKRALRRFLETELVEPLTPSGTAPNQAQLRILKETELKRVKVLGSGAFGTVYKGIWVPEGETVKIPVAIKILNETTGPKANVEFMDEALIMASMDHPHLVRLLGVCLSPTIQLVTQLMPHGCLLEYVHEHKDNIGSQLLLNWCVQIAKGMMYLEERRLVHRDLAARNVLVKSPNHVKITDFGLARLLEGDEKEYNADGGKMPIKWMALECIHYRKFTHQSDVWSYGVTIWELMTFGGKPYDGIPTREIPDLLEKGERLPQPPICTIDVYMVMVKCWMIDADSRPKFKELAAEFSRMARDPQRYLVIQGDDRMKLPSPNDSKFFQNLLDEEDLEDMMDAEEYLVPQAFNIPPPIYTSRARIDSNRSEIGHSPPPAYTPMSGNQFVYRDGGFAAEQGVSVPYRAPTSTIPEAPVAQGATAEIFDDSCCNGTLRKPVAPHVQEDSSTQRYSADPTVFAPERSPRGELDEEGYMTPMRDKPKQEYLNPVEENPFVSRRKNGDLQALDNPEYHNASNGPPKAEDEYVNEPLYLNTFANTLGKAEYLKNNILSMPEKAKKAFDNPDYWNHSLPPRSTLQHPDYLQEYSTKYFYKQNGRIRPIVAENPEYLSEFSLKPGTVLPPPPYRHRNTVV
Sequence of LCK (P06239 whole entry): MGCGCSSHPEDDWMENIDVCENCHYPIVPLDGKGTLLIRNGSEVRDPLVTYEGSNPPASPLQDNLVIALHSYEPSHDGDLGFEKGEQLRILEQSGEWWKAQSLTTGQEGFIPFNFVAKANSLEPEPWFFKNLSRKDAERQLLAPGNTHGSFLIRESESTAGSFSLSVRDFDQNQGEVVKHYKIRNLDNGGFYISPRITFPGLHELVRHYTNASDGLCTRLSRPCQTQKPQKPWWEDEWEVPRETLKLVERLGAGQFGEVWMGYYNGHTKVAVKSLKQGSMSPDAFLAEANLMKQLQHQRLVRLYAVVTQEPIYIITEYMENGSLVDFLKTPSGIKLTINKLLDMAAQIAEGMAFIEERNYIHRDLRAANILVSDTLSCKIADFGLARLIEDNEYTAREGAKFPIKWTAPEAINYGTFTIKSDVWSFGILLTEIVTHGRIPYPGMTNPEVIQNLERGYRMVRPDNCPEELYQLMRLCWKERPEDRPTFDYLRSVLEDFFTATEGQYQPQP

| SMILES | Residual activity ([1]; DDR2, 1.0E-06 M) | Residual activity ([1]; DDR2, 1.0E-07 M) | ERBB4 inhibition ([2]; 10 μM) [%] | Residual activity ([2]; ERBB4, 1.0E-06 M) | Residual activity ([2]; ERBB4, 1.0E-07 M) | Residual activity ([3]; EPHA6, 1.0E-06 M) | Residual activity ([3]; EPHA6, 1.0E-07 M) | PRKG2 inhibition ([4]; 10 μM) [%] | Residual activity, PRKG2 ([4]; assay conc. 1.0E-06 M) | Residual activity, PRKG2 ([4]; assay conc. 1.0E-07 M) | Residual activity ([5]; 1.0E-06 M) | Residual activity ([5]; 1.0E-07 M) | DDR2 inhibition ([1]; 10 μM) [%] | ERBB4 inhibition ([2]; 1 μM) | EPHA6 inhibition ([3]; 10 μM) [%] | LCK inhibition ([5]; 10 μM) [%] |
| --- | --- | --- | --- | --- | --- | --- | --- | --- | --- | --- | --- | --- | --- | --- | --- | --- |
| C#Cc1cc(Nc2ncnc3cc(I)ccc23)ccc1Cl [Compound 41] | 81 % of control | 91 % of control | > 50 | 44 % of control | 92 % of control | 75 % of control | 94 % of control | > 50 | 20 % of control | 100 % of control | 59 % of control | 78 % of control | – | – | – | – |
| C#Cc1cc(Nc2ncnc3cc(OC)c(OC)cc23)ccc1Cl [Compound 45] | 35 % of control | 87 % of control | – | 7 % of control | 34 % of control | 35 % of control | 89 % of control | – | 80 % of control | 118 % of control | 36 % of control | 94 % of control | > 50 | moderate inhibition | > 50 | > 50 |
